What was measured:
[1] = target: T1, human Muscarinic M1 receptor (Homo sapiens, UniProt P11229); assay: Allosteric potency EC50 for muscarinic M1 receptor, CHO pCRE-Luc reporter cell assay; format: cell-based; details: in presence of EC20 of acetylcholine; CHO cells, luciferase reporter, 4 h
T1 sequence (P11229 1-460): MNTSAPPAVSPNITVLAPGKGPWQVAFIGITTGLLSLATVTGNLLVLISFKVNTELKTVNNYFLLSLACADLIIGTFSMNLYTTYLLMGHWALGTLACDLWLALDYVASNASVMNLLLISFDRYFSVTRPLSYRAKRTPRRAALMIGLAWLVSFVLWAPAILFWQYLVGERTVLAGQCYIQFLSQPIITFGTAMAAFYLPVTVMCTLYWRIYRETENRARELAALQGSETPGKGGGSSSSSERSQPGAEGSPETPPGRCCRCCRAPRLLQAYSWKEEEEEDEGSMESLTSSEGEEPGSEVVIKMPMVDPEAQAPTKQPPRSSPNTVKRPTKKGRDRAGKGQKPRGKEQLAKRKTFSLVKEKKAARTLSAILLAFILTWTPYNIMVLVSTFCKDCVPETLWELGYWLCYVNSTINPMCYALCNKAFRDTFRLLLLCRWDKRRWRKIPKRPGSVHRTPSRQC
Method: A stable CHO cell line expressing recombinant human Muscarinic M1 receptor and pCRE-Luc reporter system was used for cell-based assay. The assay offers a non-radioactive based approach to determine binding of a compound to GPCRs. In this specific assay, the level of intracellular cyclic AMP which is modulated by activation or inhibition of the receptor is measured. The recombinant cells harbor luciferase reporter gene under the control of cAMP response element.
The above cells were grown in 96 well clear bottom white plates in Hams F12 medium containing 10% fetal bovine serum (FBS). Prior to the addition of compounds or standard agonist, cells were serum starved overnight. Increasing concentrations of test compounds were added along with EC20 of acetylcholine in OptiMEM medium to the cells. The incubation was continued at 37° C. in CO2 incubator for 4 h. Medium was removed and cells were washed with phosphate buffered saline. The cells were lysed and luciferase activity was measured in a Luminometer. Luminescence units were plotted against the compound concentrations using Graphpad software. EC50 values of the compounds were defined as the concentration required in stimulating the luciferase activity by 50% in presence of EC20 of acetylcholine.

[2] = Rodent brain penetration study; format: in vivo, Male Wistar rats; details: male, Wistar, brain/plasma, po; rat, 3 mg/kg, p.o. @ 1.0 hr; read-out: Single dose Rat Brain Penetration (Cb/Cp)
Method: Male Wistar rats (260±40 grams) were used as experimental animals. Three animals were housed in each cage. Animals were given water and food ad libitum throughout the experiment and maintained on a 12 h light/dark cycle.
Brain penetration was determined in discrete manner in rats. One day prior to dosing day, male Wistar rats were acclimatized and randomly grouped according to their weight. At each time point (0.5, 1 and 2 h) n=3 animals were used.
The test compounds were suitably preformulated and administered orally at (free base equivalent) 3 mg/kg. Blood samples were removed via cardiac puncture by using isoflurane anesthesia. The animals were sacrificed to collect brain tissue. Plasma was separated and brain samples were homogenized and stored frozen at −20° C. until analysis. The concentrations of the test compounds in plasma and brain were determined using LC-MS/MS method.
The test compounds were quantified in plasma and brain homogenate by qualified LC-MS/MS method using suitable extraction technique. The test compounds were quantified in the calibration range of 1-500 ng/mL in plasma and brain homogenate. Study samples were analyzed using calibration samples in the batch and quality control samples spread across the batch.

[3] = Rodent pharmacokinetic study; format: in vivo, Male Wistar rats; details: rat
Method: Male Wistar rats (260±50 grams) were used as experimental animals. Animals were housed individually in polypropylene cage. Two days prior to study, male Wistar rats were anesthetized with isoflurane for surgical placement of jugular vein catheter. Rats were randomly divided for oral (3 mg/kg) and intravenous (i.v) (1 mg/kg) dosing (n=3/group) and fasted overnight before oral dosing (p.o.). However, rats allocated to intravenous (i.v.) dosing food and water was provided ad libitum.
At pre-determined point, blood was collected through jugular vein and replenished with an equivalent volume of normal saline. Collected blood was transferred into a labeled eppendorf tube containing 10 μL of heparin as an anticoagulant. Typically blood samples were collected at following time points: 0.08, 0.25, 0.5, 1, 2, 4, 6, 8, and 24 h post dose. Blood was centrifuged at 4000 rpm for 10 minutes. Plasma was separated and stored frozen at −80° C. until analysis. The concentrations of the test compounds were quantified in plasma by qualified LC-MS/MS method using suitable extraction technique. The test compounds were quantified in the calibration range around 1-1000 ng/mL in plasma. Study samples were analyzed using calibration samples in the batch and quality control samples spread across the batch.
Pharmacokinetic parameters Cmax, AUCt, T1/2, clearance and bioavailability (F) were calculated by non-compartmental model using standard non-compartmental model by using Phoenix WinNonlin 6.0.2 or 6.0.3 version Software package and the results are tabulated below.

[4] = Protein binding assay (HT dialysis), rat plasma; format: in vitro ADME; details: pH 7.4, Mean ± SEM, n = 3, read-out: Fu Plasma
Method: (§1) Unbound fractions of test compounds in plasma, brain homogenate and liver microsomes were determined using high-throughput dialysis (HT dialysis). Briefly, dialysis membranes were soaked in deionized water for 20 minutes and then in deionized water with 30% ethanol for 15 minutes and finally in phosphate buffer until use. Membranes were rinsed in phosphate buffer before assembling. The membranes were layered between teflon bars of dialysis assembly. Stock solutions of test compound/comparative compound were prepared at 10 mM in DMSO, diluted to 1 mM in acetonitrile and further diluted to 100 μM in mixture of water and acetonitrile (1:1 v/v). Human plasma (pool of 3) was prepared from human blood (3 donors) by centrifuging at 4000 rpm for 10 min at 4° C. Rat and dog blood were obtained on the day of the study and centrifuged to obtain plasma. Rat brains were isolated, cleaned and homogenized with 2 volumes of buffer (3 fold dilution). Liver microsomes were prepared at 0.5 mg/mL in phosphate buffer (100 mM, pH 7.4). The dialysate chambers were loaded with 150 μL of 100 mM phosphate buffer (pH 7.4) in triplicates. The matrix chambers were loaded with 150 μL of the plasma or brain homogenate or microsomal suspension spiked with test compound/comparative compound at a final concentration of 1 μM. 50 μL of the sample was removed from both the chambers at 0 h. The plate was sealed and incubated at 37° C. for 6 h at 100 rpm. After 6 h, 50 μL of the sample was removed from both the chambers. Equal volumes of buffer or human plasma/microsomal suspension were added to the plasma/microsomal and buffer samples respectively to create identical sample matrices for analysis. The samples were precipitated with 150 μL of acetonitrile containing fluoxetine as an internal standard. All the samples were centrifuged at 10000 rpm for 10 minutes at 4° C.

[5] = Protein binding assay (HT dialysis), human plasma; format: in vitro ADME; details: pH 7.4, Mean ± SEM, n = 3, read-out: Fu Plasma (converted)
Method: as §1

[6] = Protein binding assay (HT dialysis), rat brain homogenate; format: in vitro ADME; details: pH 7.4, Mean ± SEM, n = 3, read-out: Fu Brain
Method: as §1

[7] = Protein binding assay (HT dialysis), human liver microsomes; format: in vitro ADME; details: pH 7.4, Human liver microsomes 0.5 mg/mL, Mean ± SEM, n = 3, read-out: Fu Microsomes (converted)
Method: as §1

[8] = Protein binding assay (HT dialysis), dog liver microsomes; format: in vitro ADME; details: pH 7.4, Dog liver microsomes 0.5 mg/mL, Mean ± SEM, n = 3, read-out: Fu Microsomes (converted)
Method: as §1

[9] = Protein binding assay (HT dialysis), dog plasma; format: in vitro ADME; details: pH 7.4, Mean ± SEM, n = 3, read-out: Fu Plasma (converted)
Method: as §1

[10] = Protein binding assay (HT dialysis), rat liver microsomes; format: in vitro ADME; details: pH 7.4, Rat liver microsomes 0.5 mg/mL, Mean ± SEM, n = 3, read-out: Fu Microsomes
Method: as §1

[11] = male, Wistar, plasma, iv, i.v. 1 mg/kg
[12] = male, Wistar, plasma, oral 3 mg/kg

Compound `Cc1nc2c(cc1Cc1ccc(-c3cscn3)cc1)C(=O)N([C@H]1CCCC[C@@H]1O)C2` [Example 4, 6-(1S,2S-2-Hydroxycyclohexyl)-2-methyl-3-(4-thiazol-4-ylbenzyl)-6,7-dihydropyrrolo[3,4-b]pyridin-5-one] has an EC50 [1] of 107 nM.

With `Cc1nc2c(cc1Cc1ccc(-c3cnn(C)c3)nc1)C(=O)N([C@H]1CCCC[C@@H]1O)C2` [Example 2, 6-(1S,2S-2-Hydroxycyclohexyl)-2-methyl-3-[2-(1-methyl-1H-pyrazol-4-yl)pyridin-5-ylmethyl]-6,7-dihydropyrrolo[3,4-b]pyridin-5-one] the EC50 [1] was 288 nM.

Work on `Cc1nc(-c2ccc(Cc3cc4c(nc3C)CN(C3CCOCC3)C4=O)cc2)co1` [Example 16, 6-(Tetrahydropyran-4-yl)-2-methyl-3-[4-(2-methyl-oxazol-4-yl)-benzyl]-6,7-dihydropyrrolo[3,4-b]pyridin-5-one] yielded an EC50 [1] of 1320 nM.

`Cc1nc2c(cc1Cc1cccc(F)c1)C(=O)N([C@H]1CCCC[C@@H]1O)C2` [Example 10, 6-(1S,2S-2-Hydroxycyclohexyl)-2-methyl-3-(3-fluorobenzyl)-6,7-dihydropyrrolo[3,4-b]pyridin-5-one] showed an EC50 [1] of 2780 nM.

Work on `Cc1nc2c(cc1Cc1cccc(Cl)c1)C(=O)N([C@H]1CCCC[C@@H]1O)CC2` [Example 18, 6-(1S,2S-2-Hydroxycyclohexyl)-2-methyl-3-(3-chlorobenzyl)-7,8-dihydro-6H-[1,6]naphthyridin-5-one] yielded an EC50 [1] of 774 nM.

`Cc1nc2c(cc1Cc1ccc(F)cc1)C(=O)N([C@H]1CCCC[C@@H]1O)C2` [Example 9, 6-(1S,2S-2-Hydroxycyclohexyl)-2-methyl-3-(4-fluorobenzyl)-6,7-dihydropyrrolo[3,4-b]pyridin-5-one] gave a Kp at 1 h [2] of 0.25 ± 0.04, an EC50 [1] of 1500 nM and an AUC(0-t) [3, 11] of 1220 ± 25 ng·h/mL. The clearance [3, 11] was 13.5 ± 0.3 mL/min/kg, the half-life [3, 11] was 1.3 ± 0.3 h and the AUC(0-t) [3, 12] was 1290 ± 387 ng·h/mL. The Cmax [3, 12] was 592 ± 142 ng/mL, the half-life [3, 12] was 1.1 ± 0.4 h and the F ([3]; oral 3 mg/kg vs i.v. 1 mg/kg) was 35 ± 11%.

`COc1ccc(Cc2cc3c(cc2C)CN([C@H]2CCCC[C@@H]2O)C3=O)cc1` [Comparative compound, reference compound] gave a fraction unbound at 6 h, 1 μM [4] of 0.0141 ± 0.003, a fraction unbound at 6 h, 1 μM [5] of 0.0063 and a fraction unbound at 6 h, 1 μM [6] of 0.0022 ± 0.001. It also gave a fraction unbound at 6 h, 1 μM [7] of 0.48, a fraction unbound at 6 h, 1 μM [8] of 0.709 and a fraction unbound at 6 h, 1 μM [9] of 0.0069. It also gave a fraction unbound at 6 h, 1 μM [10] of 0.551 ± 0.013.

Work on `COc1ccc(Cc2cc3c(nc2C)CCN([C@H]2CCCC[C@@H]2O)C3=O)cc1` [Example 14, 6-(1S,2S-2-Hydroxycyclohexyl)-2-methyl-3-(4-methoxybenzyl)-7,8-dihydro-6H-[1,6]naphthyridin-5-one] yielded an EC50 [1] of 643 nM.

For `Cc1nc2c(cc1Cc1ccnc(F)c1)C(=O)N([C@H]1CCCC[C@@H]1O)C2` [Example 28, 6-(1S,2S-2-Hydroxycyclohexyl)-2-methyl-3-(2-fluoropyridin-4-ylmethyl)-6,7-dihydropyrrolo[3,4-b]pyridin-5-one], the EC50 [1] was 929 nM.

`COc1ccc(Cc2cc3c(nc2C)CN(C2COCCC2O)C3=O)cc1` (centres unmarked) [Example 13, 6-(4-Hydroxytetrahydropyran-3-yl)-3-(4-methoxybenzyl)-2-methyl-6,7-dihydropyrrolo[3,4-b]pyridin-5-one] gave an EC50 [1] of 669 nM.

Compound `COc1cccc(Cc2cc3c(nc2C)CCN([C@H]2CCCC[C@@H]2O)C3=O)c1` [Example 24, 6-(1S,2S-2-Hydroxycyclohexyl)-2-methyl-3-(3-methoxybenzyl)-7,8-dihydro-6H-[1,6]naphthyridin-5-one] has an EC50 [1] of 1210 nM.

With `Cc1nc2c(cc1Cc1ccc(F)c(F)c1)C(=O)N([C@H]1CCCC[C@@H]1O)CC2` [Example 19, 6-(1S,2S-2-Hydroxycyclohexyl)-2-methyl-3-(3,4-difluorobenzyl)-7,8-dihydro-6H-[1,6]naphthyridin-5-one] the EC50 [1] was 972 nM.

— patent US12156871B2, “Substituted azacycles as muscarinic M1 receptor positive allosteric modulators” (SUVEN LIFE SCIENCES LIMITED, priority 2017, dated 2024)
